In ChEMBL document CHEMBL1129721, “Application of the Heck reaction in the synthesis of truncated naphthoic acid retinoids” (1996) one finds EC50 ratio and ED30 data, which are given here for 13 molecules.

For assay [1], the target named is T1, Retinoic acid receptor alpha (Homo sapiens) (UniProt P10276).
T1 sequence (whole entry): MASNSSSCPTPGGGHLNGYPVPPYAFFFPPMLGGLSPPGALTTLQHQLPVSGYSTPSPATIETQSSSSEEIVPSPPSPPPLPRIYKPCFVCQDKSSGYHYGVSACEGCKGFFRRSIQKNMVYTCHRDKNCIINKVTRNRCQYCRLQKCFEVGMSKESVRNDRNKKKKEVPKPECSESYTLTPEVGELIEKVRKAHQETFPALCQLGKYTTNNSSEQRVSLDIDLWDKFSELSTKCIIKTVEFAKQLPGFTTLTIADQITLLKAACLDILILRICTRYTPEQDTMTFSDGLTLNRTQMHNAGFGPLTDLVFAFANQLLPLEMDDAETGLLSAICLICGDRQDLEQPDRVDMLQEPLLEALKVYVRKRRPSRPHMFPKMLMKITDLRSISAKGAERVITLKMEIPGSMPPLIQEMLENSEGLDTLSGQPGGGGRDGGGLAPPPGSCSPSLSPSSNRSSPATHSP
The assay can be described thus: Transcriptional activation of retinoic acid RAR-alpha receptor; Not active.

The species entered for another assay is Mus musculus. The assay can be described thus: Concentration that induces 30% utriculi reduction in rhino mouse. The class given is functional.
Assay [2] addresses T2, Retinoic acid receptor beta (Homo sapiens) (UniProt P10826).
T2 sequence (whole entry): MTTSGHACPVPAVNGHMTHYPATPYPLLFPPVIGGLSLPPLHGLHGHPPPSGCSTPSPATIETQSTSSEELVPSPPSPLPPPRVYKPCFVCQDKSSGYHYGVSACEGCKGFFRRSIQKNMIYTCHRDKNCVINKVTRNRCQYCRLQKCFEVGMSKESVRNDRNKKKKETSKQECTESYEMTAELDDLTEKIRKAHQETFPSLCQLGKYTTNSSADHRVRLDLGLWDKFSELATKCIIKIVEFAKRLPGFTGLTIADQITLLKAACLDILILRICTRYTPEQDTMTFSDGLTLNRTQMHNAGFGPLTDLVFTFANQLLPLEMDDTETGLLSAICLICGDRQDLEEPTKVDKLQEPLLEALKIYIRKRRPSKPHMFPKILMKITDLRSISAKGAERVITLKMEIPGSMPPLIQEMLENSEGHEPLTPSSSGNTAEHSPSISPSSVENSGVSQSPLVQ
As to the kind of experiment: Transcriptional activation of retinoic acid RAR-beta receptor; Not active.

Assay [3] deals with T3, Retinoic acid receptor gamma (Homo sapiens) (UniProt P13631).
T3 sequence (whole entry): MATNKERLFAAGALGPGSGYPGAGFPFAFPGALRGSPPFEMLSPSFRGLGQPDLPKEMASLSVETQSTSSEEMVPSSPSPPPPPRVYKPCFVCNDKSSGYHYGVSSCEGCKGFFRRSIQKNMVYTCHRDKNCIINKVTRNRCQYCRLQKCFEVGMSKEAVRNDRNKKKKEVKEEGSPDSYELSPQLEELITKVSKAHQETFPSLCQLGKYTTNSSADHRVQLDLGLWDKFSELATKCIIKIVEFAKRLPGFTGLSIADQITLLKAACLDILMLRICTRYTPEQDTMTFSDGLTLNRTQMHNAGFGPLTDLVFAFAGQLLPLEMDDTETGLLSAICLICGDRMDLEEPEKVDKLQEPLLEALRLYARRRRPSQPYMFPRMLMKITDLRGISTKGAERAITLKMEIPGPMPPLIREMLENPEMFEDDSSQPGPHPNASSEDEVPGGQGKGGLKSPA
As to the kind of experiment: Transcriptional activation of retinoic acid RAR-gamma receptor; Not active.

Calls of active or inactive are those of the source. No cut-off for these calls is given here.

As to `C/C(=C\C(=O)O)c1ccc(C(=O)c2ccc3c(c2)C(C)(C)CCC3(C)C)cc1`, the EC50 ratio entry in assay [1] was “inactive”.
Turning to `CC1(C)CCC(C)(C)c2cc(C(O)c3ccc4cc(C(=O)O)ccc4c3)ccc21` (stereo unspecified), in the assay filed under Mus musculus, the ED30 was 223 µM.
Regarding `CC1(C)CCC(C)(C)c2cc(C(O)c3cccc(/C=C/C(=O)O)c3)ccc21` (stereo unspecified), the EC50 ratio entry in assay [2], in assay [3] and in assay [1] was “inactive” in each case.
In the assay filed under Mus musculus, `CC1(C)CCC(C)(C)c2cc(C(=O)c3ccc4cc(C(=O)O)ccc4c3)ccc21` showed an ED30 of 29 µM.
`CC1(C)CCC(C)(C)c2cc(C(=O)/C=C/c3ccc(C(=O)O)cc3)ccc21` came in with an ED30 in the assay listed under Mus musculus of 3.4 µM.
Consider `CC1(C)CCC(C)(C)c2cc(C(=O)c3ccc(C#CC(=O)O)cc3)ccc21`, for which the ED30 in the assay listed under Mus musculus turned out to be 1000 µM. For the same molecule, in assay [1], the EC50 ratio entry was “inactive”.
In the case of `Cc1cc(C(=O)c2ccc3c(c2)C(C)(C)CCC3(C)C)ccc1/C=C/C(=O)O`, in the assay listed under Mus musculus, the ED30 was found to be 184 µM. Besides, the EC50 ratio result in assay [1] was “inactive”.
For `CC1(C)CCC(C)(C)c2cc(C(O)c3ccc(/C=C/C(=O)O)cc3)ccc21` (stereo unspecified), the EC50 ratio entry in assay [2], in assay [3] and in assay [1] was “inactive” in each case. This molecule also displayed an ED30 in the assay listed under Mus musculus of 1740 µM.
Take `CC1(C)CCC(C)(C)c2cc(C(=O)c3ccc(/C=C/C(=O)O)cc3)ccc21`: the ED30 in the assay listed under Mus musculus came to 54 µM.
For `CC1(C)CCC(C)(C)c2cc(C(=O)c3ccc(/C=C\C(=O)O)cc3)ccc21`, the EC50 ratio result in assay [1] was “inactive”.
As to `CC1(C)CCC(C)(C)c2cc(C(O)/C=C/c3ccc(C(=O)O)cc3)ccc21` (stereo unspecified), in the assay filed under Mus musculus, the ED30 turned out to be 65 µM.
Take `CC1(C)CCC(C)(C)c2cc(C(=O)c3cccc(/C=C/C(=O)O)c3)ccc21`: the EC50 ratio entry in assay [2] and in assay [1] was “inactive” in each case.
Turning to `C/C(=C\c1ccc(C(=O)c2ccc3c(c2)C(C)(C)CCC3(C)C)cc1)C(=O)O`, the ED30 in the assay filed under Mus musculus came out at 92 µM.
